Experimental findings from patent publication US10077237B2 (Sanofi, priority 2013, dated 2018) are described below.

Molecules are shown by their SMILES. “And” between values parts separate entries of the source, which are not always exact repeats. Identical values can stand only once. Counter-ions that a name gives are not always drawn.

The experiment concerns the target T1, recombinant human AMPK complex, containing α2β1γ2 (Homo sapiens, UniProt P54646+Q9Y478).
T1 construct: hsAMPKα2-552-His, hsAMPKβ1-2-270 and hsAMPKγ-2-569 respectively; hsAMPKβ1-2-270; hsAMPKγ-2-569; His (C); made in house; host or cells: Spodoptera frugiperda Sf21 (baculovirus)
Put plainly: AMPK in vitro activation assay (HTRF). In kind it is biochemical. As to conditions: for EC50: HTRF, recombinant human α2β1γ2 AMPK, 200 μM ATP, biotinylated ACC-CREBp peptide, repeat determinations on separate lines; for Emax: potentiation of AMPK activity as percent over the basal signal (without compound). Summed up:
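HTRF phosphorylation read-out (Eu-cryptate anti-pS133-CREB, streptavidin-XL665) after a 45 min, 37° C kinase step. This step was initiated by a solution with 200 μM ATP and 2 or 0.08 μM biotinylated ACC-CREBp peptide. Beforehand, compound sat 30 min at room temperature with baculovirus/Sf21 α2β1γ2 in pH 7.0 HEPES buffer; EC50 derived from activation over basal.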

T1 sequence (P54646 2-552): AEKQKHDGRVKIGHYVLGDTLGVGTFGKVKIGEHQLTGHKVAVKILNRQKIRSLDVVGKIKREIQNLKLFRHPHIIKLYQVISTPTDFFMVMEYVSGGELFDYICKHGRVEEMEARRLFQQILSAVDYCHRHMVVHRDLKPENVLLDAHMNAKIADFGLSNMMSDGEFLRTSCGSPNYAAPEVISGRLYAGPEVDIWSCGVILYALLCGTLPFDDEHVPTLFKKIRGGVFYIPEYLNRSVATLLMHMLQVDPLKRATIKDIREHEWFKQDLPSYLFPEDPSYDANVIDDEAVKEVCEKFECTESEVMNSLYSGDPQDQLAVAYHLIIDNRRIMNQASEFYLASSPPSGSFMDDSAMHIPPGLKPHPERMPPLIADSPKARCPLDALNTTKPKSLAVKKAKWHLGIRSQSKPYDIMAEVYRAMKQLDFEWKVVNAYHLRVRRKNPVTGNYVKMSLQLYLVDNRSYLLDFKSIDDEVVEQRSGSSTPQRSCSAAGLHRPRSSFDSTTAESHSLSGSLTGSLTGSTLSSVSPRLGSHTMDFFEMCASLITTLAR
T1 sequence (Q9Y478 2-270): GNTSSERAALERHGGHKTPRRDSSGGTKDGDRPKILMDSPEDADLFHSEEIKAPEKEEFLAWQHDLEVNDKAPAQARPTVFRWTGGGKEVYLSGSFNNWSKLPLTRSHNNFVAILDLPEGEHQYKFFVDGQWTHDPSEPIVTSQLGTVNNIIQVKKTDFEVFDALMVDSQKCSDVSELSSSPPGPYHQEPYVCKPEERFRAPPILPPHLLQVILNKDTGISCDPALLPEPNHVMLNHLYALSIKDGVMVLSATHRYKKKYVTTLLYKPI
T1 sequence (Q9UGJ0 2-569 partner limits assumed): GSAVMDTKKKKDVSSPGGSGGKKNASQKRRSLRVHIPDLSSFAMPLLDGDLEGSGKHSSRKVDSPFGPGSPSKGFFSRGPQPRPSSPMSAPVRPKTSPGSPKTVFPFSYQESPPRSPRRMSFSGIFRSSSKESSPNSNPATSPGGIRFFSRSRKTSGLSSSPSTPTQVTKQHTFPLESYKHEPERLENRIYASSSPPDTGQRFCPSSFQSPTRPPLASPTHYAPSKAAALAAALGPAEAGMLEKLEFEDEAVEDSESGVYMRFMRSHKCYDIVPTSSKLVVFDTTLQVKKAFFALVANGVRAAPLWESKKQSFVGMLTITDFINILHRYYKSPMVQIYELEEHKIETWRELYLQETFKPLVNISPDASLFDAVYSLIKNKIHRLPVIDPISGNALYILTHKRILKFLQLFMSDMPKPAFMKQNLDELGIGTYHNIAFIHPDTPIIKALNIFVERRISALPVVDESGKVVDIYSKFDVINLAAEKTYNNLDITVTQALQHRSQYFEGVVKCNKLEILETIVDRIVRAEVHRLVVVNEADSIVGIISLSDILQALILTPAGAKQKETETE

For orientation: EC50 means the midpoint of the concentration-response curve. Usually Emax stands for the greatest response seen or fitted, relative to the assay's reference. Turning to `Cc1cc(C(O)=C2C(=O)Nc3cc(Cl)c(-c4ccc(OCCCO)cc4)cc32)on1` [Compound 91, 6-chloro-3-[hydroxy-(3-methylisoxazol-5-yl)methylene]-5-[4-(3-hydroxypropoxy)phenyl]indolin-2-one], the EC50 is 4 nM and the Emax worked out at 185%.

For `COc1cc(C(O)=C2C(=O)Nc3cc(F)c(-c4ccc(-c5cccc(OC)c5O)cc4)c(F)c32)on1` [Compound 92, 4,6-difluoro-3-[hydroxy-(3-methoxyisoxazol-5-yl)methylene]-5-[4-(2-hydroxy-3-methoxy-phenyl)phenyl]indolin-2-one], the EC50 was determined as 0.3 nM and the Emax amounted to 172%.

On to `CN1CCN(c2cccc(C(O)=C3C(=O)Nc4cc(Cl)c(-c5ccc(N6CCOCC6)cc5)cc43)c2)CC1` [Compound 93, 6-chloro-3-[hydroxy-[3-(4-methylpiperazin-1-yl)phenyl]methylene]-5-(4-morpholinophenyl)indolin-2-one hydrochloride], for which the EC50 worked out at 58 nM and the Emax was 186%.

On to `O=C1Nc2cc(Cl)c(-c3ccc(N4CCOCC4)cc3)cc2C1=C(O)c1cccc(N2CCOCC2)c1` [Compound 94, 6-chloro-3-[hydroxy-(3-morpholinophenyl)methylene]-5-(4-morpholinophenyl)indolin-2-one], for which the EC50 was 14 nM and the Emax was 150%.

Consider `O=C1Nc2cc(Cl)c(-c3ccc(N4CCOCC4)cc3)cc2C1=C(O)c1ccc(OC(F)(F)F)c(F)c1` [Compound 95, 6-chloro-3-[[3-fluoro-4-(trifluoromethoxy)phenyl]-hydroxy-methylene]-5-(4-morpholinophenyl)indolin-2-one], for which the EC50 turned out to be 396 nM and the Emax was determined as 159%.

Take `COc1cc(C(O)=C2C(=O)Nc3cc(Cl)c(-c4ccc(C5(CO)CC5)c(F)c4)cc32)on1` [Compound 96, 6-chloro-5-[3-fluoro-4-[1-(hydroxymethyl)cyclopropyl]phenyl]-3-[hydroxy-(3-methoxyisoxazol-5-yl)methylene]indolin-2-one]: the EC50 is 0.3 nM and 0.2 nM.

Consider `COc1c(F)cc(C(O)=C2C(=O)Nc3cc(Cl)c(-c4ccc(N5CCOCC5)cc4)cc32)cc1Cl` [Compound 97, 6-chloro-3-[(3-chloro-5-fluoro-4-methoxy-phenyl)hydroxy-methylene]-5-(4-morpholinophenyl)indolin-2-one], for which the EC50 stood at 41 nM and the Emax is 185%.

As to `COc1ccc(C(O)=C2C(=O)Nc3cc(Cl)c(-c4ccc(N5CCOCC5)cc4)cc32)c(F)c1F` [Compound 98, 6-chloro-3-[(2,3-difluoro-4-methoxy-phenyl)hydroxy-methylene]-5-(4-morpholinophenyl)indolin-2-one], the EC50 stood at 2 nM and the Emax was 191%.

Take `COc1cc(C(O)=C2C(=O)Nc3cc(Cl)c(-c4ccc(OCCCN5CCOCC5)cc4)cc32)on1` [Compound 99, 6-chloro-3-[hydroxy-(3-methoxyisoxazol-5-yl)methylene]-5-[4-(3-morpholinopropoxy)phenyl]indolin-2-one]: the EC50 was 5 nM and the Emax came out at 187%.

On to `COc1cc(C(O)=C2C(=O)Nc3cc(Cl)c(-c4ccc(OCc5cccnc5)cc4)cc32)on1` [Compound 100, 6-chloro-3-[hydroxy-(3-methoxyisoxazol-5-yl)methylene]-5-[4-(3-pyridylmethoxy)phenyl]indolin-2-one], for which the EC50 stood at 36 nM and the Emax was 159%.

`Cc1cc(C(O)=C2C(=O)Nc3cc(Cl)c(-c4ccc(OCc5ncccn5)cc4)cc32)on1` [Compound 101, 6-chloro-3-[hydroxy-(3-methylisoxazol-5-yl)methylene]-5-[4-(pyrimidin-2-ylmethoxy)phenyl]indolin-2-one]: the EC50 was 63 nM and the Emax was 159%.

Regarding `O=C1Nc2cc(Cl)c(-c3ccc(N4CCOCC4)cc3)cc2C1=C(O)c1cc(O)no1` [Compound 102, 6-chloro-3-[hydroxy-(3-hydroxyisoxazol-5-yl)methylene]-5-(4-morpholinophenyl)indolin-2-one], the EC50 came to 2 nM and the Emax was found to be 122%.

Take `COCCOc1ccc(-c2cc3c(cc2Cl)NC(=O)C3=C(O)c2cc(C)no2)cc1` [Compound 103, 6-chloro-3-[hydroxy-(3-methylisoxazol-5-yl)methylene]-5-[4-(2-methoxyethoxy)phenyl]indolin-2-one]: the EC50 stood at 16 nM and the maximal response (Emax) was 114%.

Turning to `CC(=O)NCCOc1ccc(-c2cc3c(cc2Cl)NC(=O)C3=C(O)c2cc(C)no2)cc1` [Compound 104, N-[2-[4-[6-chloro-3-[hydroxy-(3-methylisoxazol-5-yl)methylene]-2-oxo-indolin-5-yl]phenoxy]ethyl]acetamide], the EC50 was found to be 15 nM and the Emax was 107%.

`CCOc1cc(C(O)=C2C(=O)Nc3cc(Cl)c(-c4ccc(-c5cccc(OC)c5O)cc4)cc32)on1` [Compound 105, 6-chloro-3-[(3-ethoxyisoxazol-5-yl)hydroxy-methylene]-5-[4-(2-hydroxy-3-methoxy-phenyl)phenyl]indolin-2-one]: the EC50 was determined as 0.3 nM and the Emax stood at 74%.

In the case of `O=C1Nc2cc(Cl)c(-c3ccc(C4(CO)CC4)cc3)cc2C1=C(O)c1cc(C2CC2)no1` [Compound 106, 6-chloro-3-[(3-cyclopropylisoxazol-5-yl)hydroxy-methylene]-5-[4-[1-(hydroxymethyl)cyclopropyl]phenyl]indolin-2-one], the EC50 stood at 0.1 nM and the Emax was 155%.

For the compound `Cc1[nH]c(=O)sc1C(O)=C1C(=O)Nc2cc(Cl)c(-c3ccc(N4CCOCC4)cc3)cc21` [Compound 107, 5-[-[6-chloro-5-(4-morpholinophenyl)-2-oxo-indolin-3-ylidene]-hydroxy-methyl]-4-methyl-3H-thiazol-2-one], the EC50 turned out to be 36 nM and the Emax is 104%.

With `COc1cc(F)c(C(O)=C2C(=O)Nc3cc(Cl)c(-c4ccc(N5CCOCC5)cc4)cc32)cc1F` [Compound 108, 6-chloro-3-[(2,5-difluoro-4-methoxy-phenyl)hydroxy-methylene]-5-(4-morpholinophenyl)indolin-2-one], the EC50 was found to be 6 nM and the Emax was 141%.

In the case of `COc1cccc(-c2ccc(-c3cc4c(cc3Cl)NC(=O)C4=C(O)c3cc(OC(C)C)no3)cc2)c1O` [Compound 109, 6-chloro-3-[hydroxy-(3-isopropoxyisoxazol-5-yl)methylene]-5-[4-(2-hydroxy-3-methoxy-phenyl)phenyl]indolin-2-one], the EC50 was found to be 0.6 nM and the Emax was 165%.

On to `COc1cc(C(O)=C2C(=O)Nc3cc(Cl)c(-c4ccc(C5(OC)CCC5)cc4)cc32)on1` [Compound 110, 6-chloro-3-[hydroxy-(3-methoxyisoxazol-5-yl)methylene]-5-[4-(1-methoxycyclobutyl)phenyl]indolin-2-one], for which the EC50 was determined as 6 nM and the Emax was 131%.

Consider `COc1cc(C(O)=C2C(=O)Nc3cc(Cl)c(-c4ccc(C5(CO)CC5)cc4F)cc32)on1` [Compound 111, 6-chloro-5-[2-fluoro-4-[1-(hydroxymethyl)cyclopropyl]phenyl]-3-[hydroxy-(3-methoxyisoxazol-5-yl)methylene]indolin-2-one], for which the EC50 turned out to be 1 nM and the Emax worked out at 175%.
